Test results taken from patent US9023789B2, “Amylin analogs and pharmaceutical compositions thereof” (Novo Nordisk A/S, priority 2012, dated 2015).
Read-outs that look alike come from different tables or passages of the source. Numbered stars: 1 amine (or outer) side, 2 acyl side, 3 side chain; on linkers, the order of the positions; unused ones are H or OH. Bridge positions count the residues as written; N and C are the ends. Side chains are listed from the residue outwards. Peptide text beside a SMILES is read from it. * marks the point of attachment. C20 diacid = O=C(O)CCCCCCCCCCCCCCCCCCC(=O)*; γGlu = O=C(O)[C@H](CCC(=O)[*:2])N[*:1]

Experiments:
[1] = ASSAY (IV) determination of solubility; format: physicochemical
How it was run: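 Polypeptide stock in water ([…]) was mixed 1:1 with 100 mM buffers: glycylglycine at pH 3.0, 4.0, 5.0 and bistrispropane at pH 6.0, 6.5, 7.0, 7.5, 8.0. After 18 hours at room temperature, samples were centrifuged and polypeptide concentration measured by UPLC.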

[2] = molecular target: T1, human amylin receptor (membranes from Amylin 3(a)/CRE-luc cells) (Homo sapiens, UniProt O60896+P30988); assay: ASSAY (V) binding to the human amylin receptor (SPA, 125I-rat amylin);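 further: competition binding of cell membranes (35 ng/µL) mixed with SPA beads in 384-well plates at 40 µL total volume, read by scintillation counting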
T1 construct: expressed in transfected cells
T1 sequence (P30988 25-474): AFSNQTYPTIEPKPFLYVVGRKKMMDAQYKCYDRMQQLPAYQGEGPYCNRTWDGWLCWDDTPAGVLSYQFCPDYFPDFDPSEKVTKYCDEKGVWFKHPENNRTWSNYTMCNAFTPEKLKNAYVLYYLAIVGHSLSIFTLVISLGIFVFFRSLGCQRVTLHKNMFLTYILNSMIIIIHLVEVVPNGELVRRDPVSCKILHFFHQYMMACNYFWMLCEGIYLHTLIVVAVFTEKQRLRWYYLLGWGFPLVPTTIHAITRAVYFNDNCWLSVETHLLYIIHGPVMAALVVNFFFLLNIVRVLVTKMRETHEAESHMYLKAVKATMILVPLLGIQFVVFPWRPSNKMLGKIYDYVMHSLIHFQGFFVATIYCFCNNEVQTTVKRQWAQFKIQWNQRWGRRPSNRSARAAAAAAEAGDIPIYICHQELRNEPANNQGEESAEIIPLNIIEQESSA
T1 sequence (O60896 24-148 partner): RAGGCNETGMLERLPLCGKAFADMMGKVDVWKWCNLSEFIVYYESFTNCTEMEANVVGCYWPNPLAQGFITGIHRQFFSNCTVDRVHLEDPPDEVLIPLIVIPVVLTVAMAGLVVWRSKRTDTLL

rat calcitonin receptor = molecular target: T2, rat calcitonin receptor (Rattus norvegicus, UniProt P32214); assay: ASSAY (VIII) binding to the rat calcitonin receptor; details: Table 7, read-out: rCTR bind IC50
T2 construct: expressed in transfected cells; host or cells: BHK tk'ts 13 (transient, FuGENE 6), membranes
T2 sequence (P32214 25-479 isoform P32214-2 limits assumed): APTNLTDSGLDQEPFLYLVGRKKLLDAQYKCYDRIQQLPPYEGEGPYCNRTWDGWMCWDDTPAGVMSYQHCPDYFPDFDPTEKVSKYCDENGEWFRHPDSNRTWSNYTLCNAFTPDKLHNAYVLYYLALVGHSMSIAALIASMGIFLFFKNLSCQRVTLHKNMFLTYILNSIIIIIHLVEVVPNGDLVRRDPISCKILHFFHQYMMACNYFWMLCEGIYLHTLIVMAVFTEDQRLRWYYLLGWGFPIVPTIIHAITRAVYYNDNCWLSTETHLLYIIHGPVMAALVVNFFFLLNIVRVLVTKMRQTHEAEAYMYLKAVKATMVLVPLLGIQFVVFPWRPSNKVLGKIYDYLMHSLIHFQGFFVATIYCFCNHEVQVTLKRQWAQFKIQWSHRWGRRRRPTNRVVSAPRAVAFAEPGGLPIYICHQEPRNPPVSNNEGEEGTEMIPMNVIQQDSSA
How it was run: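 Transfect BHK tk′ts 13 cells transiently with rat calcitonin receptor, culture in DMEM containing 10% FBS, collect cells about 48 hours later, then prepare membranes.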

[3] = molecular target: T3, rat amylin receptor (rat calcitonin receptor + rat RAMP 3) (Rattus norvegicus, UniProt P32214+Q9JJ73); assay: ASSAY (VI) binding to the rat amylin receptor
T3 construct: expressed in transfected cells; host or cells: BHK tk'ts 13 (transient, FuGENE 6), membranes
T3 sequence (P32214 25-479 isoform P32214-2 limits assumed): T2 sequence (P32214 25-479 isoform P32214-2 limits assumed)
T3 sequence (Q9JJ73 23-147 partner): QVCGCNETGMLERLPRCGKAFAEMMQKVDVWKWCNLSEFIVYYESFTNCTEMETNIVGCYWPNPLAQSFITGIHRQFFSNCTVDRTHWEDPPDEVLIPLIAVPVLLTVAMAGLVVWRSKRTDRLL
How it was run: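 Binding to the rat amylin receptor was determined with membrane preparations. The receptor was expressed by transiently transfecting BHK tk′ts 13 cells with rat calcitonin receptor, using FuGENE® 6 (Roche) according to the manufacturer's recommendations. Roughly 48 hours later the cells were harvested and their membranes isolated.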

## CC[C@H](C)[C@H](NC(=O)[C@H](C)NC(=O)CNC(=O)[C@H](Cc1ccccc1)NC(=O)[C@H](CC(N)=O)NC(=O)[C@@H]1CCCN1C(=O)[C@H](CO)NC(=O)[C@H](CO)NC(=O)[C@H](Cc1c[nH]cn1)NC(=O)[C@H](CCCNC(=N)N)NC(=O)[C@H](CC(C)C)NC(=O)[C@H](Cc1ccccc1)NC(=O)[C@H](CC(N)=O)NC(=O)[C@H](C)NC(=O)[C@H](CC(C)C)NC(=O)[C@H](CCCNC(=N)N)NC(=O)[C@H](CCC(N)=O)NC(=O)[C@@H](NC(=O)[C@H](C)NC(=O)[C@@H]1CSSC[C@H](NC(=O)[C@@H](N)CCCCNC(=O)CC[C@H](NC(=O)CCCCCCCCCCCCCCCCCCC(=O)O)C(=O)O)C(=O)N[C@@H](CC(N)=O)C(=O)N[C@@H]([C@@H](C)O)C(=O)N[C@@H](C)C(=O)N[C@@H]([C@@H](C)O)C(=O)N1)[C@@H](C)O)C(=O)N1CCC[C@H]1C(=O)N[C@@H](CO)C(=O)N[C@@H](CO)C(=O)N[C@H](C(=O)N[C@@H](CC(N)=O)C(=O)N[C@H](C(=O)NCC(=O)N[C@@H](CCCNC(=N)N)C(=O)N[C@@H](CC(N)=O)C(=O)N[C@H](C(=O)N[C@@H](Cc1ccc(O)cc1)C(N)=O)[C@@H](C)O)C(C)C)[C@@H](C)O [Example 79] (H-K([γGlu-C20 diacid])CNTATCATQRLANFLRHSSPNFGAIPSSTNVGRNTY-NH2; disulfide 2-7 (inferred); N-terminus assumed)
[1]; bistrispropane buffer, pH 6.5, read-out: Solubility pH 6.5 Concentration
  solubility at 18 h: ≥ 200 µM
[1]; bistrispropane buffer, pH 7.5, read-out: Solubility pH 7.5 Concentration
  solubility at 18 h: ≥ 200 µM
[1]; bistrispropane buffer, pH 6.0, read-out: Solubility pH 6.0 Concentration
  solubility at 18 h: ≥ 200 µM
[1]; bistrispropane buffer, pH 7.0, read-out: Solubility pH 7.0 Concentration
  solubility at 18 h: ≥ 200 µM
[1]; bistrispropane buffer, pH 8.0, read-out: Solubility pH 8.0 Concentration
  solubility at 18 h: ≥ 200 µM
[1]; glycylglycine buffer, pH 3.0, read-out: Solubility pH 3.0 Concentration
  solubility at 18 h: ≥ 200 µM
[1]; glycylglycine buffer, pH 4.0, read-out: Solubility pH 4.0 Concentration
  solubility at 18 h: ≥ 200 µM
[1]; glycylglycine buffer, pH 5.0, read-out: Solubility pH 5.0 Concentration
  solubility at 18 h: ≥ 200 µM
[2]; Table 4, read-out: hAmylin-R bind IC50
  IC50: 0.79 nM
[2]; Table 5, selectivity, hCTR bind IC50 / hAmylin-R bind IC50
  Ratio hCT/hAmylin binding: 46.1
[2]; Table 5a, selectivity, hCTR bind IC50 / hAmylin-R bind IC50
  Ratio hCT/hAmylin binding: 46.1
[2]; Table 5b, selectivity, hCTR bind IC50 / hAmylin-R bind IC50
  Ratio hCT/hAmylin binding: 46.1
[2]; Table 5c, selectivity, hCTR bind IC50 / hAmylin-R bind IC50
  Ratio hCT/hAmylin binding: 46.1
[2]; Table 7, human binding selectivity, included for comparison
  Ratio hCT/hAmylin binding: 46.1
[2]; Table 7a (preferred compounds), human binding selectivity, included for comparison
  Ratio hCT/hAmylin binding: 46.1
[2]; ratio of human calcitonin receptor binding IC50 to human amylin receptor binding IC50
  Ratio hCT/hAmylin binding: 46.1
Rat calcitonin receptor
  IC50: 35.5 nM
[3]; Table 7, binding to rat amylin receptor, read-out: rAmylin-R bind IC50
  IC50: 1.65 nM
[3]; Table 7, rat binding selectivity, rCTR IC50 / rAmylin-R IC50
  Ratio rCT/rAmylin binding: 21.5
[3]; Table 7a (preferred compounds), rat binding selectivity, rCTR IC50 / rAmylin-R IC50
  Ratio rCT/rAmylin binding: 21.5
[3]; ratio of rCTR bind IC50 to rAmylin-R bind IC50
  Ratio rCT/rAmylin binding: 21.5
